Experimental data reported in patent US7423026B2, “Methylated cyclodextrin complexes” (PediPharm Oy, priority 2002, dated 2008).

Tests used:
[1] = Aqueous phase-solubility study of cannabinoids with RM-β-CD; format: physicochemical; settings: for complexation constant for 1:1 inclusion complex, K1:1 / complexation constant for 1:2 inclusion complex, K1:2: with RM-β-CD, calculated from Ap-type phase-solubility diagram
Text: (§1) AU the phase-solubility diagrams (cannabinoid concentration as a function of CD concentration) are Ap-type (Higuchi and Connors 1965) and calculated complexation constants for 1:1 and 1:2 inclusion complexes has been shown in Table 1.

[2] = Aqueous phase-solubility study of cannabinoids with HP-β-CD; format: physicochemical; settings: calculated from Ap-type phase-solubility diagram
Text: as §1

[3] = Dissolution studies of CBD formulations in 2% RM-β-CD dissolution media (pH 6.6); format: physicochemical; settings: gelatine capsule, 1.0 mg pure CBD and 99 mg lactose, without RM-β-CD, 2% RM-β-CD media
[4] = oral administration, depending on the drug vehicle; cited from earlier work
[5] = Aqueous solubility of THC in HP-β-CD solution (Jarho et al.); format: physicochemical; settings: calculated from Jarho et al.
Experimental: Compared to earlier findings, methylated β-CD improves the aqueous solubility of cannabinoids more efficiently, imparting promising dissolution properties for cannabinoids. […] However, the complexation of cannabinoids with methylated β-CD is more efficient compared to HP-β-CD.
As discussed above, the bioavailability of THC is 6-20% after oral administration. THC is commercially available as a capsule containing 5-10 mg of THC (Marinol). […] Thus, it can be calculated that 2 g of HP-β-CD is needed to establish a dosage form containing 5 mg of complexed THC. This is an amount that is too much for tablet formulations. According to the invention it has now been shown that the same amount of THC can be complexed with 200 mg of RM-β-CD.

[6] = Dissolution studies of THC formulations in 2% RM-β-CD dissolution media (pH 6.6); format: physicochemical; settings: gelatine capsule, 1.0 mg pure THC and 99 mg lactose, without RM-β-CD, 2% RM-β-CD media
[7] = 40% solution of HP-β-CD; cited from earlier work

| SMILES | complexation constant for 1:1 inclusion complex, K1:1 [1] | complexation constant for 1:2 inclusion complex, K1:2 [1] [M⁻¹] | complexation constant for 1:1 inclusion complex, K1:1 [2] | complexation constant for 1:2 inclusion complex, K1:2 [2] [M⁻¹] | time until CBD is fully dissolved [3] [h] | bioavailability [4] | amount of HP-β-CD needed for a dosage form containing 5 mg of complexed THC [5] [g] | amount of HP-β-CD needed to complex 1 mg of THC [5] [mg] | amount of RM-β-CD to prepare the same formulation (1 mg of THC) ([1]; 1 mg of THC) [mg] | amount of RM-β-CD that complexes 5 mg of THC ([1]; same amount of THC (5 mg)) [mg] | time until THC is fully dissolved [6] [h] | concentration of THC solution obtained [7] [µg/mL] |
| --- | --- | --- | --- | --- | --- | --- | --- | --- | --- | --- | --- | --- |
| C=C(C)[C@@H]1CCC(C)=C[C@H]1c1c(O)cc(CCCCC)cc1O [CBD, cannabidiol] | 484 145 M^−1 | 8 | 13 844 M^−1 | 62 | 3 | – | – | – | – | – | – | – |
| CCCCCc1cc(O)c2c(c1)OC(C)(C)[C@@H]1CCC(C)=C[C@@H]21 [THC, Δ^9-tetrahydrocannabinol] | 19 563 M^−1 | 38 | 4 222 M^−1 | 58 | – | 6-20% | 2 | 400 | 25.7 | 200 | 1 | 1000 |
